Experiments:
[1] = molecular target: T1, Tyrosine-protein phosphatase non-receptor type 2 (Homo sapiens, UniProt P17706); experiment: Inhibitory concentration against T cell protein tyrosine phosphatase
T1 sequence (P17706 whole entry): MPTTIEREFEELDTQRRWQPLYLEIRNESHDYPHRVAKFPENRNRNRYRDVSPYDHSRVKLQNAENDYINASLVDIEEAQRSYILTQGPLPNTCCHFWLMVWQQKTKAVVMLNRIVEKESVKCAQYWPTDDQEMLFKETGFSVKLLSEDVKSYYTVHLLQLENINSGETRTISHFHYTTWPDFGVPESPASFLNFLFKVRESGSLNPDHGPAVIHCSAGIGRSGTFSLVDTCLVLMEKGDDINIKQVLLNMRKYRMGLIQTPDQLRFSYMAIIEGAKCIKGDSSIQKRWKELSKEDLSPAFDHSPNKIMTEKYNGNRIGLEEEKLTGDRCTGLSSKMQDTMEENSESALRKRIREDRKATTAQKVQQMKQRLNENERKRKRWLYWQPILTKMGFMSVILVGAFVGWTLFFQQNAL

[2] = molecular target: T2, Tyrosine-protein phosphatase non-receptor type 1 (Homo sapiens, UniProt P18031); experiment: Inhibition constant against protein-tyrosine phosphatase 1B by PNPP enzyme assay
T2 sequence (P18031 whole entry): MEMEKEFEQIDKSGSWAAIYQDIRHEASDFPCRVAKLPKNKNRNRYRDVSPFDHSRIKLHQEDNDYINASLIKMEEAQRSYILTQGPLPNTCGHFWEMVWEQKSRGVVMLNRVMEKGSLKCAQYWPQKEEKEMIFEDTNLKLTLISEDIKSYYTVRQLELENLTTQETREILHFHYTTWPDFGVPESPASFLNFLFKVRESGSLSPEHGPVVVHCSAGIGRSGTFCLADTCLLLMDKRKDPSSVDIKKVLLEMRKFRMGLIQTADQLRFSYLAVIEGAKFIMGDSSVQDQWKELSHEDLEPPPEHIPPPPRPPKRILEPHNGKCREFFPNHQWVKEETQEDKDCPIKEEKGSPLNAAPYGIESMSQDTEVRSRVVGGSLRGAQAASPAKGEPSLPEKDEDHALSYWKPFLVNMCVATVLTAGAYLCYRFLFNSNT

[3] = molecular target: T2, Tyrosine-protein phosphatase non-receptor type 1; experiment: Inhibitory concentration against protein-tyrosine phosphatase

CC(=O)N[C@@H](Cc1ccccc1)C(=O)N[C@@H](Cc1ccc([C@@H]2CC(=O)NS2(=O)=O)cc1)C(N)=O was tested, and the IC50 [1] was 0.135 µM, the Ki [2] was 0.18 µM and the IC50 [3] was > 100 µM.

Source: ChEMBL document CHEMBL1141120, “Structure-based design and discovery of protein tyrosine phosphatase inhibitors incorporating novel isothiazolidinone heterocyclic phosphotyrosine mimetics” (J Med Chem, 2005)
